Results taken from PMC2823129 (Lipids, 2009).

System: mitochondrial GPAT (GPAT1-like)
Assay: […]glycerol-3-phosphate incorporation into organic phase, liquid scintillation
Type: biochemical, Macrobrachium borellii
Conditions: read-out: apparent Km; mitochondrial fraction; 0.8 mM glycerol-3-phosphate, 4 mM MgCl2, 2 mg/ml BSA, 8 mM NaF, 1 mM DTT, 75 mM Tris-HCl pH 7.4, 30°C

`CCCCCCCC/C=C\CCCCCCCC(=O)SCCNC(=O)CCNC(=O)[C@H](O)C(C)(C)COP(=O)(O)OP(=O)(O)OC[C@H]1O[C@@H](n2cnc3c(N)ncnc32)[C@H](O)[C@@H]1OP(=O)(O)O` [oleoyl-CoA] was tested. Which Km did it give?
The Km was 31.2 µM.
